Results taken from paper PMC12700902 (Communications Biology, 2025).
Values joined by “and” are separate entries in the source; they are usually repeats but may differ in a detail not shown here. Equal values may be shown once. “Also recorded” adds a separate entry of the source. Read-outs that look alike come from different tables or passages of the source. Values belong to the compound of their own block, whether it stands above or below them.

Columns and labels:
A. mellifera α5 nAChR = A. mellifera α5 nAChR (Apis mellifera, UniProt A0A0H3V1C5); assay: Two-electrode voltage clamp of X. laevis oocytes expressing the A. mellifera α5 nAChR (wild-type); format: cell-based; settings: for normalised current response (Fig. 1c source data): single oocytes, normalised to maximal concentration of Fig. 1b
Description: (§1) Oocytes were mainly obtained either from Ecocyte (https://ecocyte-us.com/products/xenopus-oocyte-delivery-service/), which arrived ready for injection, or from the European Xenopus Resource Centre (https://xenopusresource.org/resources) as ovarian sections. In the latter case, oocytes were either prepared for injection by incubation in collagenase type I in OR2 (sodium chloride 82 mM, potassium chloride 2 mM, magnesium chloride 2 mM, HEPES 5 mM, pH 7.6) at 2 mg/ml for 45 min at room temperature and shaking at 150 RPM[19] or by manual defolliculation followed by incubation with 0.5 mg/ml collagenase type I in OR2 for 6 min at room temperature at 150 RPM. Oocyte nuclei were injected with 23 nl of A. mellifera α5 DNA cloned into the pCI vector[19] […] Mutant A. mellifera α5 subunits (in pCI) were injected at 100–500 ng/µl. […] Oocytes were clamped at −80 mV and responses were recorded on a flatbed chart recorder (Kipp and Zonen BD-11E, Delft, The Netherlands). The oocytes were continuously perfused with SOS at a flow rate of 10 ml/min. Oocytes were selected for experiments if responses were consistent for two or more applications of the normalising concentration of agonist. Test chemicals were applied at 3 min intervals. Agonist concentration response curves were created by measuring the response of the oocytes to different agonist concentrations in SOS, responses were normalised to the maximal response induced by the agonist. Amitraz (10 mM) was dissolved in DMSO and then at a working concentration in 1:1000 ratio in SOS. All other chemicals were either dissolved in distilled water to make frozen stocks (100 mM) or dissolved directly in SOS (10 mM) on the day of use. […] Oocytes were clamped at voltages ranging between −100 and +40 mV to determine the current voltage relationship.
Concentration-response data were fitted with the Hill equation: y=Imax/1/EC50/agonist^nH where y is the normalised current amplitude, Imax is the maximal response Imax/Iagonistmax , EC50 is the agonist concentration at half-maximal efficacy, [agonist] is the agonist concentration and nH is the Hill coefficient, to estimate the EC50 and Hill coefficient. Curve fitting was carried out using GraphPad software version 10 (GraphPad Software, La Jolla, CA, United States). […] The peak of the current responses was normalised to the agonist concentration that gave a maximal response. Error bars on graphs show standard error, ‘n’ indicates the number of experiments and ‘batch’ indicates the number of frogs these oocytes came from. Values are shown as mean ± 95% confidence limits.

[1] = test system: X. laevis oocytes injected with water only; assay: Oocytes injected with water only; format: cell-based, Xenopus laevis
Description: as §1

[2] = test system: α5 subunit of D. melanogaster; settings: homomeric receptor; cited from earlier work
[3] = 1 mM, applied 3 min after 5 mM ACh
[4] = read-out: Maximum response relative to 5 mM ACh (%)
[5] = Table 1 series, mean (95% confidence limits)
[6] = Table 1 series, oocytes clamped at −80 mV, mean (95% confidence limits), read-out: EC50

Sequence of A. mellifera α5 nAChR (A0A0H3V1C5 entry or part of it): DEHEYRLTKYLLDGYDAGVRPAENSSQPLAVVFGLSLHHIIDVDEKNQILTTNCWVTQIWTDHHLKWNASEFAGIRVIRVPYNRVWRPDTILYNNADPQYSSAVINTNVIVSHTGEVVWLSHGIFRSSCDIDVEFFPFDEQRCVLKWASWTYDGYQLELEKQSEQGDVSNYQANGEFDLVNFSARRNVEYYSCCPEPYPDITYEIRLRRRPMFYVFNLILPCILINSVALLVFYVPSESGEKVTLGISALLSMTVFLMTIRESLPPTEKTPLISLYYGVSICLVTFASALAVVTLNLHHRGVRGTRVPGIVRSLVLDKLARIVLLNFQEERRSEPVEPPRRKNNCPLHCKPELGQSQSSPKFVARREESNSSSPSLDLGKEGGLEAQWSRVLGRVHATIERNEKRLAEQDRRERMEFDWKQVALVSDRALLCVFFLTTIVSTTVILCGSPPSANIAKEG

Compound: N[C@@H](CCC(=O)O)C(=O)O [glutamate]
- agonist response (A. mellifera α5 nAChR; [3]): none of them were able to induce detectable responses; also recorded: no agonist actions

Compound: α-bungarotoxin
- antagonist action on ACh response (A. mellifera α5 nAChR): antagonistic actions
- washing time after which response to 2 mM ACh was restored (A. mellifera α5 nAChR): 26 min

Compound: C[N+](C)(C)CCO [Choline]
- Hill coefficient (A. mellifera α5 nAChR): 2.043 (0.9065–3.180)
- EC50 (A. mellifera α5 nAChR; EC50): 9070 µM
- Emax (A. mellifera α5 nAChR; [4]): 100%

Compound: NCC(=O)O [glycine]
- agonist response (A. mellifera α5 nAChR; [3]): none of them were able to induce detectable responses; also recorded: no agonist actions

Compound: NCCCC(=O)O [GABA, γ-aminobutyric acid]
- agonist response (A. mellifera α5 nAChR; [3]): none of them were able to induce detectable responses; also recorded: no agonist actions

Compound: COc1cc(CCO)ccc1O [homovanillyl alcohol]
- agonist response (A. mellifera α5 nAChR; 100 μM or 1 mM): did not elicit a response; also recorded: no agonist actions

- Hill coefficient (A. mellifera α5 nAChR; [5]): 3.727 (2.998–4.455)
- EC50 (A. mellifera α5 nAChR; [6]): 378 µM
- normalised current response (Fig. 1c source data) (A. mellifera α5 nAChR; log[Agonist] M -2.22185, listed as OA): 1.1 and 0.809
- normalised current response (Fig. 1c source data) (A. mellifera α5 nAChR; log[Agonist] M -3): 1
- normalised current response (Fig. 1c source data) (A. mellifera α5 nAChR; log[Agonist] M -3.30103, listed as OA): 0.827 and 0.623
- normalised current response (Fig. 1c source data) (A. mellifera α5 nAChR; log[Agonist] M -5): 0
- Emax at 1000 µM (A. mellifera α5 nAChR; [4]): 899%
- type of agonist action relative to ACh (A. mellifera α5 nAChR; wild-type): superagonists
Compound: NCC(O)c1ccc(O)cc1 (stereo not shown) [Octopamine, octopamine]
- normalised current response (Fig. 1c source data) (A. mellifera α5 nAChR; log[Agonist] M -2.52288, listed as OA): 0.943 and 1.14 and 0.971 and 0.986 and 0.935 and 1.1
- normalised current response (Fig. 1c source data) (A. mellifera α5 nAChR; log[Agonist] M -3.22185, listed as OA): 0.892 and 0.674 and 0.971 and 0.901 and 1.01 and 0.859
- normalised current response (Fig. 1c source data) (A. mellifera α5 nAChR; log[Agonist] M -3.52288, listed as OA): 0.284 and 0.276 and 0.462 and 0.451 and 0.389 and 0.232
- response of water-injected oocytes [1]: no tyramine and octopamine responses

Compound: CC(=O)OCC[N+](C)(C)C [Acetylcholine, acetylcholine]
- EC50 [2]: 8.8 µM
- Hill coefficient (A. mellifera α5 nAChR): 2.304 (1.886–2.721)
- effect of absence of Na+ on agonist response (A. mellifera α5 nAChR): eliminated the response
- response on co-application (A. mellifera α5 nAChR): synergistic agonism
- response when applied alone (A. mellifera α5 nAChR): did not induce detectable responses
- shape of concentration response curve (A. mellifera α5 nAChR): biphasic concentration response curve
- Emax (A. mellifera α5 nAChR; [4]): 100%

- Hill coefficient (A. mellifera α5 nAChR): 2.220 (1.585–2.855)
- effect of absence of Na+ on agonist response (A. mellifera α5 nAChR): eliminated the response
- response on co-application (A. mellifera α5 nAChR): synergistic agonism
- response when applied alone (A. mellifera α5 nAChR): did not induce detectable responses
Compound: NCCc1ccc(O)c(O)c1 [Dopamine, dopamine]
- response of water-injected oocytes [1]: no detectable response; also recorded: no responses were detected

Compound: Cc1ccc(/N=C/N(C)/C=N/c2ccc(C)cc2C)c(C)c1 [amitraz]
- antagonist action (A. mellifera α5 nAChR; 10 µM coapplied with 400 µM octopamine): no antagonist actions; also recorded: nor antagonistic actions
- agonist action (A. mellifera α5 nAChR; 10 µM, applied 3 min after 5 mM ACh): no agonist actions; also recorded: did not show any agonist actions

Compound: NCCc1c[nH]c2ccc(O)cc12 [Serotonin]
- Hill coefficient (A. mellifera α5 nAChR; [5]): 3.419 (2.503–4.335)
- Emax (A. mellifera α5 nAChR; [4]): 238%

Compound: NCCc1c[nH]cn1 [Histamine, histamine]
- Hill coefficient (A. mellifera α5 nAChR): 2.500 (1.050–3.950)
- type of agonist action relative to ACh (A. mellifera α5 nAChR): partial agonist
- EC50 (A. mellifera α5 nAChR; [6]): 3360 µM
- Emax at 5000 µM (A. mellifera α5 nAChR; [4]): 45.3%

Compound: NCCc1ccc(O)cc1 [Tyramine, tyramine]
- Hill coefficient (A. mellifera α5 nAChR; [5]): 1.918 (1.355–2.481)
- EC50 (A. mellifera α5 nAChR; [6]): 91.1 µM
- normalised current response (Fig. 1c source data) (A. mellifera α5 nAChR; log[Agonist] M -3): 1
- normalised current response (Fig. 1c source data) (A. mellifera α5 nAChR; log[Agonist] M -4, listed as TA): 0.538 and 0.456 and 0.597 and 0.416 and 0.62
- normalised current response (Fig. 1c source data) (A. mellifera α5 nAChR; log[Agonist] M -5): 0
- Emax at 1000 µM (A. mellifera α5 nAChR; [4]): 770%
- type of agonist action relative to ACh (A. mellifera α5 nAChR; wild-type): superagonists
- response of water-injected oocytes [1]: no tyramine and octopamine responses
